{"source": "paper PMC12844208", "about": "“Screening for Peptides to Bind and Functionally Inhibit SARS-CoV-2 Fusion Peptide Using Mirrored Combinatorial Phage Display and Human Proteomic Phage Display” (Molecules, 2026)", "key": {"[1]": {"tested_on": "SARS-CoV-2 infection of Vero-E6/TMPRSS2 cells", "assay": "microbe, parasite or virus in culture", "assay_type": "cell-based"}, "[2]": {"tested_on": "D-FP12_biotin (SARS-CoV-2 spike fusion peptide synthesised as a D-peptide)", "assay_type": "binding"}, "[3]": {"tested_on": "FP", "assay": "Preliminary screen of FP versus a pan-coronaviral phage display library", "parameters": "species or system SARS-CoV-2", "conditions": "lack of binding to homologous regions of other coronaviruses placed the finding in doubt", "procedure": "Proteomic phage display of peptide regions of proteins is also possible for viral as well as host proteins, and a preliminary screen of FP versus a pan-coronaviral phage display library of regions of coronaviral proteins was carried out following the methods previously outlined, which only identified a single peptide, despite a large amount of sequencing data obtained. This 39mer […] peptide was derived from the nsp3 (protease-encoding) protein of coronavirus 229E comprising the last four residues of the loop between Y2 and Y3 regions and the first 35 residues of the Y3 region. Y3 plays a role in double-membrane vesicle formation, but the lack of binding to homologous regions of other coronaviruses in the library placed the finding in doubt."}, "[4]": {"tested_on": "anti-Borrelia burgdorferi immune sera", "conditions": "occurrences in the anti-Borrelia burgdorferi immune sera NEB PhD7 screening dataset; cited from earlier work", "text": "Table 2 Ten enriched PhD7-mer L-peptides tested in antiviral assays as D-peptides. | column: Occurrence in an Unrelated Screen"}}, "note": "Entries after “also recorded” stand apart in the source; their conditions may differ. Ends that are not written are not given here."}
{"compound": "CCC(CC)COC(=O)[C@H](C)N[P@](=O)(OC[C@H]1O[C@@](C#N)(c2ccc3c(N)ncnn23)[C@H](O)[C@@H]1O)Oc1ccccc1", "note": "[Remdesivir, reference compound]", "values": [{"measurement": "inhibition of infection (in words)", "setting": "[1]", "value": "strongly inhibited"}, {"measurement": "inhibition at 5 µM", "setting": "[1]; Severe acute respiratory syndrome coronavirus 2, VeroE6/TMPRSS2, read-out: inhibition of infection", "value": 95, "unit": "%"}]}
{"compound": "SLTGTRF", "values": [{"measurement": "Read Count", "setting": "[2]", "value": "11,170"}]}
{"compound": "LSTLSVDFNGVLHKAYIDVLRNSFGKDLNANMSLAECKR", "values": [{"measurement": "peptide identified as binding FP in the pan-coronaviral library", "setting": "[3]", "value": "identified"}]}
{"compound": "HFARHLA", "values": [{"measurement": "Read Count", "setting": "[2]", "value": 7063}]}
{"compound": "ETSTMYP", "values": [{"measurement": "effect on SARS-CoV-2 infection (number of infected cells compared to vehicle controls)", "setting": "[1]", "value": "exception"}, {"measurement": "Read Count", "setting": "[2]", "value": 3552}]}
{"compound": "LEVYYET", "values": [{"measurement": "Read Count", "setting": "[2]", "value": 3570}]}
{"compound": "LTSLPRN", "values": [{"measurement": "Read Count", "setting": "[2]", "value": 4284}]}
{"compound": "WSLGYTG", "values": [{"measurement": "Occurrence in an Unrelated Screen", "setting": "[4]", "value": 4}, {"measurement": "Read Count", "setting": "[2]", "value": "6,280,489"}]}
{"compound": "NTWPYKP", "values": [{"measurement": "Occurrence in an Unrelated Screen", "setting": "[4]", "value": 1}, {"measurement": "Read Count", "setting": "[2]", "value": "264,257"}]}
{"compound": "RDHYMMF", "values": [{"measurement": "Read Count", "setting": "[2]", "value": 7135}]}
{"compound": "WSRGYTG", "values": [{"measurement": "Read Count", "setting": "[2]", "value": 3676}]}
{"compound": "RRRRRRRRGPDRNFRLSEHRQALA-NH2 [OTUD1-derived peptide]", "values": [{"measurement": "inhibition of SARS-CoV-2 infection of Vero-E6/TMPRSS2 cells (in words)", "setting": "[1]", "value": "no evidence for any marked impact; also recorded: failed to inhibit viral infection"}]}
{"compound": "HDTTLIT", "values": [{"measurement": "Read Count", "setting": "[2]", "value": "169,773"}]}
